Measurements reported in patent US20230295197A1, “STAT5 and STAT6 Degraders and Uses Thereof” (REGENTS OF THE UNIVERSITY OF MICHICAN, priority 2022, published 2023).
Where two headings read alike, the source gives them in different places. *1 amine or outer side, *2 acyl side, *3 side chain or, on linkers, in order; H or OH if unused. Where a SMILES comes first, the peptide text is derived from it. [ ]: non-standard residue; d: D form. The star is where a group is joined. Benzothienyl2CO(5-CF2PO3H2) = O=C(c1cc2cc(C(F)(F)P(=O)(O)O)ccc2s1)*; βAla(N-(4-Br-phenyl)) = O=C(CCN(c1ccc(Br)cc1)[*:1])[*:2]; NHBn(4-(4-Me-thiazol-5-yl)) = Cc1ncsc1-c1ccc(CN*)cc1; NH(CH2)8CO = O=C(CCCCCCCCN[*:1])[*:2]; Hyp = O=C(O)[C@@H]1C[C@@H](O)CN1; Tle = CC(C)(C)[C@H](N)C(=O)O

Target: T1, STAT6 (Homo sapiens, UniProt P42226)
T1 construct: endogenous in cells; host or cells: MOLM-16, KU-812, SKNO1, MB231, L1236
T1 sequence (P42226 1-847): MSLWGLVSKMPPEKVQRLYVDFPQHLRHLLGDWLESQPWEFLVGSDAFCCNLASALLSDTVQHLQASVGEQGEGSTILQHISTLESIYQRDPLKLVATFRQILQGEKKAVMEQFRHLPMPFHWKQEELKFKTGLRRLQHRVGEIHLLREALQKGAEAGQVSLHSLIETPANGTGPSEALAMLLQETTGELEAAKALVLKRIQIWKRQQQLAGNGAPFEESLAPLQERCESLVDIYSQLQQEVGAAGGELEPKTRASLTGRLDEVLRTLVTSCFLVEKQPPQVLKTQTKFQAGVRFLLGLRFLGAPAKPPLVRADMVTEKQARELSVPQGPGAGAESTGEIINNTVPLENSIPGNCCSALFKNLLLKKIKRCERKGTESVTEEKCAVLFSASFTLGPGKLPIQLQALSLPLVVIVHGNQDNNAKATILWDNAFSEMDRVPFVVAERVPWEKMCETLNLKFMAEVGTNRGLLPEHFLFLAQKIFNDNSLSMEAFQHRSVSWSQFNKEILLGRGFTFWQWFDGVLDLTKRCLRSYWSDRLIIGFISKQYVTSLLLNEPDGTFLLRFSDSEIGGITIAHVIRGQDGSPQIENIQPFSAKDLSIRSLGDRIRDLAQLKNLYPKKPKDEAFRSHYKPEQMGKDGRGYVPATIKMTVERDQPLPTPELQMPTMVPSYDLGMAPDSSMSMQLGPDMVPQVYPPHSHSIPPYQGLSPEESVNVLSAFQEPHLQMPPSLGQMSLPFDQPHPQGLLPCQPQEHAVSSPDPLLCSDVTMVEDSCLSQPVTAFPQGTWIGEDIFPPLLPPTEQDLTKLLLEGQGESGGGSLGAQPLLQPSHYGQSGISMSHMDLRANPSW
Experiment: Immunoblotting (Western blot) analysis of STAT6 degradation efficiency of degraders in treated cells
Format: cell-based
Method in brief: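 Each data point uses roughly one million cells dosed as indicated; pellets are lysed on ice, freeze-thawed, and clarified. Reduced, denatured samples (95 °C, 5 min) run on SDS gels, then membranes receive rabbit mAbs to STAT5 or STAT6 plus mouse anti-GAPDH overnight, followed by dye-labelled secondaries for fluorescence imaging.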

[1] = MOLM-16 cells, class symbols, read-out: DC50 S6 MOLM-16
[2] = L1236 cells, read-out: DC50 S6 L1236

Structure (SMILES)	DC50 [1]	DC50 [2]	further results
CC(C)(C)[C@H](NC(=O)c1cc2cc(C(F)(F)P(=O)(O)O)ccc2s1)C(=O)N1CCN(C(=O)CC(=O)NCCCCC#Cc2cccc3c2C(=O)N(C2CCC(=O)NC2=O)C3=O)C[C@H]1C(=O)N1CCC[C@H](c2ccccc2)C1 (stereo partly drawn) [Compound 527, ((2-(((2S)-1-((2S)-4-(3-((6-(2-(2,6-dioxopiperidin-3-yl)-1,3-dioxoisoindolin-4-yl)hex-5-yn-1-yl)amino)-3-oxopropanoyl)-2-((R)-3-phenylpiperidine-1-carbonyl)piperazin-1-yl)-3,3-dimethyl-1-oxobutan-2-yl)carbamoyl)benzo[b]thiophen-5-yl)difluoromethyl)phosphonic acid]	> 10 µM		
CC(C)(C)[C@H](NC(=O)c1cc2cc(C(F)(F)P(=O)(O)O)ccc2s1)C(=O)N1CCN(C(=O)CC(=O)NCCCCCC#Cc2ccc3c(c2)C(=O)N(C2CCC(=O)NC2=O)C3=O)C[C@H]1C(=O)N1CCC[C@H](c2ccccc2)C1 (stereo partly drawn) [Compound 530, ((2-(((2S)-1-((2S)-4-(3-((7-(2-(2,6-dioxopiperidin-3-yl)-1,3-dioxoisoindolin-5-yl)hept-6-yn-1-yl)amino)-3-oxopropanoyl)-2-((R)-3-phenylpiperidine-1-carbonyl)piperazin-1-yl)-3,3-dimethyl-1-oxobutan-2-yl)carbamoyl)benzo[b]thiophen-5-yl)difluoromethyl)phosphonic acid]	> 10 µM		
CC(C)(C)[C@H](NC(=O)c1cc2cc(C(F)(F)P(=O)(O)O)ccc2s1)C(=O)N1C[C@@H](OCC(=O)NCCCCCCCCC#Cc2ccc3c(c2)C(=O)N(C2CCC(=O)NC2=O)C3=O)C[C@H]1C(=O)N1CCC[C@H](c2ccccc2)C1 (stereo partly drawn) [Compound 504, ((2-(((2S)-1-((2S,4S)-4-(2-((10-(2-(2,6-dioxopiperidin-3-yl)-1,3-dioxoisoindolin-5-yl)dec-9-yn-1-yl)amino)-2-oxoethoxy)-2-((R)-3-phenylpiperidine-1-carbonyl)pyrrolidin-1-yl)-3,3-dimethyl-1-oxobutan-2-yl)carbamoyl)benzo[b]thiophen-5-yl)difluoromethyl)phosphonic acid]	> 10 µM		
CC(C)(C)[C@H](NC(=O)c1cc2cc(C(F)(F)P(=O)(O)O)ccc2s1)C(=O)N1CCN(C(=O)CC(=O)NCCCCCC#Cc2cccc3c2C(=O)N(C2CCC(=O)NC2=O)C3=O)C[C@H]1C(=O)N1CCO[C@H](c2ccccc2)C1 (stereo partly drawn) [Compound 515, ((2-(((2S)-1-((2S)-4-(3-((7-(2-(2,6-dioxopiperidin-3-yl)-1,3-dioxoisoindolin-4-yl)hept-6-yn-1-yl)amino)-3-oxopropanoyl)-2-((R)-2-phenylmorpholine-4-carbonyl)piperazin-1-yl)-3,3-dimethyl-1-oxobutan-2-yl)carbamoyl)benzo[b]thiophen-5-yl)difluoromethyl)phosphonic acid]	> 10 µM		
CC(C)(C)[C@H](NC(=O)c1cc2cc(C(F)(F)P(=O)(O)O)ccc2s1)C(=O)N1Cc2cc(OCC(=O)NCCCCC#Cc3ccc4c(c3)C(=O)N(C3CCC(=O)NC3=O)C4=O)ccc2C[C@H]1C(=O)N1CCO[C@H](c2ccccc2)C1 (stereo partly drawn) [Compound 542, ((2-(((2S)-1-((3S)-7-(2-((6-(2-(2,6-dioxopiperidin-3-yl)-1,3-dioxoisoindolin-5-yl)hex-5-yn-1-yl)amino)-2-oxoethoxy)-3-((R)-2-phenylmorpholine-4-carbonyl)-3,4-dihydroisoquinolin-2(1H)-yl)-3,3-dimethyl-1-oxobutan-2-yl)carbamoyl)benzo[b]thiophen-5-yl)difluoromethyl)phosphonic acid]	> 10 µM		
CC(C)(C)[C@H](NC(=O)c1cc2cc(C(F)(F)P(=O)(O)O)ccc2s1)C(=O)N1C[C@@H](OCCCCCCCCCCC#Cc2cccc3c2CN(C2CCC(=O)NC2=O)C3=O)C[C@H]1C(=O)N1CCO[C@H](c2ccccc2)C1 (stereo partly drawn) [Compound 585, ((2-(((2S)-1-((2S,4S)-4-((12-(2-(2,6-dioxopiperidin-3-yl)-1-oxoisoindolin-4-yl)dodec-11-yn-1-yl)oxy)-2-((R)-2-phenylmorpholine-4-carbonyl)pyrrolidin-1-yl)-3,3-dimethyl-1-oxobutan-2-yl)carbamoyl)benzo[b]thiophen-5-yl)difluoromethyl)phosphonic acid]		> 10 µM	DC50 (MOLM-16 cells, numeric bound, read-out: DC50 S6 MOLM-16): > 0.3 µM
Cc1ncsc1-c1ccc([C@H](C)NC(=O)[C@@H]2C[C@@H](O)CN2C(=O)[C@@H](NC(=O)CCCCCCCCCNC(=O)CO[C@H]2C[C@@H](C(=O)N3CCC[C@H](c4ccccc4)C3)N(C(=O)[C@@H](NC(=O)c3cc4cc(C(F)(F)P(=O)(O)O)ccc4s3)C(C)(C)C)C2)C(C)(C)C)cc1 [Compound 442, (difluoro(2-(((S)-1-((2S,4S)-4-(2-((10-(((S)-1-((2S,4R)-4-hydroxy-2-(((S)-1-(4-(4-methylthiazol-5-yl)phenyl)ethyl)carbamoyl)pyrrolidin-1-yl)-3,3-dimethyl-1-oxobutan-2-yl)amino)-10-oxodecyl)amino)-2-oxoethoxy)-2-((R)-3-phenylpiperidine-1-carbonyl)pyrrolidin-1-yl)-3,3-dimethyl-1-oxobutan-2-yl)carbamoyl)benzo[b]thiophen-5-yl)methyl)phosphonic acid]	> 10 µM	> 10 µM	
CC(C)(C)[C@H](NC(=O)c1cc2cc(C(F)(F)P(=O)(O)O)ccc2s1)C(=O)N1C[C@@H](OCCCCCCCCCC#Cc2cccc3c2CN(C2CCC(=O)NC2=O)C3=O)C[C@H]1C(=O)N1CCO[C@H](c2ccccc2)C1 (stereo partly drawn) [Compound 584, ((2-(((2S)-1-((2S,4S)-4-((11-(2-(2,6-dioxopiperidin-3-yl)-1-oxoisoindolin-4-yl)undec-10-yn-1-yl)oxy)-2-((R)-2-phenylmorpholine-4-carbonyl)pyrrolidin-1-yl)-3,3-dimethyl-1-oxobutan-2-yl)carbamoyl)benzo[b]thiophen-5-yl)difluoromethyl)phosphonic acid]	0.1 to 1 µM	> 10 µM	
Cc1ncsc1-c1ccc(CNC(=O)[C@@H]2C[C@@H](O)CN2C(=O)[C@@H](NC(=O)CCCCCCNC(=O)CO[C@@H]2C[C@@H](C(=O)N(C)c3ccc(Br)cc3)N(C(=O)[C@@H](NC(=O)c3cc4cc(C(F)(F)P(=O)(O)O)ccc4s3)C(C)(C)C)C2)C(C)(C)C)cc1 [Compound 418, ((2-(((S)-1-((2S,4R)-2-((4-bromophenyl)(methyl)carbamoyl)-4-(2-((7-(((S)-1-((2S,4R)-4-hydroxy-2-((4-(4-methylthiazol-5-yl)benzyl)carbamoyl)pyrrolidin-1-yl)-3,3-dimethyl-1-oxobutan-2-yl)amino)-7-oxoheptyl)amino)-2-oxoethoxy)pyrrolidin-1-yl)-3,3-dimethyl-1-oxobutan-2-yl)carbamoyl)benzo[b]thiophen-5-yl)difluoromethyl)phosphonic acid]		> 10 µM	DC50 (MB231 cells, read-out: DC50 S6 MB231): > 10 µM
Cc1ncsc1-c1ccc([C@H](C)NC(=O)[C@@H]2C[C@@H](O)CN2C(=O)[C@@H](NC(=O)CCNC(=O)CC(=O)N2CCN(C(=O)[C@@H](NC(=O)c3cc4cc(C(F)(F)P(=O)(O)O)ccc4s3)C(C)(C)C)[C@H](C(=O)N3CCC[C@H](c4ccccc4)C3)C2)C(C)(C)C)cc1 [Compound 453, (difluoro(2-(((S)-1-((S)-4-(3-((3-(((S)-1-((2S,4R)-4-hydroxy-2-(((S)-1-(4-(4-methylthiazol-5-yl)phenyl)ethyl)carbamoyl)pyrrolidin-1-yl)-3,3-dimethyl-1-oxobutan-2-yl)amino)-3-oxopropyl)amino)-3-oxopropanoyl)-2-((R)-3-phenylpiperidine-1-carbonyl)piperazin-1-yl)-3,3-dimethyl-1-oxobutan-2-yl)carbamoyl)benzo[b]thiophen-5-yl)methyl)phosphonic acid]	> 10 µM	> 10 µM	
Cc1ncsc1-c1ccc(CNC(=O)[C@@H]2C[C@@H](O)CN2C(=O)[C@@H](NC(=O)CCCCCCCCNC(=O)CCN(C(=O)[C@@H]2CCCN2C(=O)[C@@H](NC(=O)c2cc3cc(C(F)(F)P(=O)(O)O)ccc3s2)C(C)(C)C)c2ccc(Br)cc2)C(C)(C)C)cc1 [Compound 397] ({Benzothienyl2CO(5-CF2PO3H2)}-[Tle]P[βAla(N-(4-Br-phenyl))][NH(CH2)8CO][Tle][Hyp]-{NHBn(4-(4-Me-thiazol-5-yl))})			DC50 (read-out: DC50 S6 MB231, MB231 cells): > 10 µM
